Reference: ChEMBL document CHEMBL4138191, “Organic arsenicals target thioredoxin reductase followed by oxidative stress and mitochondrial dysfunction resulting in apoptosis” (Eur J Med Chem, 2018)
Active and inactive are the calls of the source. No cut-off for these calls is given here.

Key:
[1] = test system: HL-60; assay: Cytotoxicity against human HL60 cells after 24 hrs by MTT assay; assay type: functional, cell-based; details: for IC50: HL-60, 24 h
[2] = test system: HL-60; assay: Cytotoxicity against human HL60 cells after 48 hrs by MTT assay; assay type: functional, cell-based; details: for IC50: HL-60, 48 h
[3] = test system: MCF7; assay: Cytotoxicity against human MCF7 cells after 48 hrs by MTT assay; assay type: functional, cell-based; details: for IC50: MCF7, 48 h
[4] = test system: SGC-7901; assay: Cytotoxicity against human SGC7901 cells after 48 hrs by MTT assay; assay type: functional, cell-based; details: for IC50: SGC-7901, 48 h
[5] = test system: GES1; assay: Cytotoxicity against human GES-1 cells after 24 hrs by MTT assay; assay type: cell-based; details: for IC50: Homo sapiens, GES1, 24 h; for Activity: human, ges1, 24 h
[6] = test system: HL-60; assay: Cytotoxicity against human HL60 cells by MTT assay; assay type: functional, cell-based; details: TDE = time-dependent effect
[7] = target: T1, Thioredoxin reductase 1, cytoplasmic (Homo sapiens) (UniProt Q16881); assay: Inhibition of TrxR in human HL60 cells assessed as residual activity at 2 times IC50 using thioredoxin as substrate up to 24 hrs measured for 5 mins by UV-Vis spectrophotometric analysis relative to control; assay type: cell-based
T1 sequence (whole entry): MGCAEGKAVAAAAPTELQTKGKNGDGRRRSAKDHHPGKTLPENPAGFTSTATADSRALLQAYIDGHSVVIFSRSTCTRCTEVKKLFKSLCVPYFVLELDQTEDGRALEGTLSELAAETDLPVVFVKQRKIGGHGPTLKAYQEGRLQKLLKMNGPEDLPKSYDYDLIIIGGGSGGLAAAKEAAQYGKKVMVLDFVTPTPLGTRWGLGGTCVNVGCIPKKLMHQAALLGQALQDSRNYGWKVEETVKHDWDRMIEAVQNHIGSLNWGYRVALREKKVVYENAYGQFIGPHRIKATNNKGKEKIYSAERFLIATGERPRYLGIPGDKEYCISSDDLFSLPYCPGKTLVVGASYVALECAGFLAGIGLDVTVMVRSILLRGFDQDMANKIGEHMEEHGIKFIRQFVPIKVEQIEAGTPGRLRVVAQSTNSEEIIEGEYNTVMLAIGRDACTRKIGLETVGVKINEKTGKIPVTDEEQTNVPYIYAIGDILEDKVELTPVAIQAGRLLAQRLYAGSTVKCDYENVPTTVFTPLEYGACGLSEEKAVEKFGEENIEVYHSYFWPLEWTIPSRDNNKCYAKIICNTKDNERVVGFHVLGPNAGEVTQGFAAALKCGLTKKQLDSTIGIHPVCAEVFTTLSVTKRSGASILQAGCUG

[8] = test system: HL-60; assay: Induction of ROS generation in human HL60 cells at 1.5 uM after 24 hrs in presence of antioxidant lipoic acid by DCFH-DA staining-based flow cytometry; assay type: functional, cell-based
[9] = test system: HL-60; assay: Induction of ROS generation in human HL60 cells at 1.5 uM after 24 hrs by DCFH-DA or DHE staining-based fluorescence microscopic analysis; assay type: functional, cell-based
[10] = test system: HL-60; assay: Induction of ROS generation in human HL60 cells assessed as reduction in intracellular thiols up to 2.5 uM incubated for 12 to 24 hrs by DTNB titration method; assay type: functional, cell-based
[11] = test system: HL-60; assay: Potentiation of H2O2-induced cytotoxicity in human HL60 cells assessed as induction of cell death at 1.5 to 2 uM preincubated for 6 hrs followed by compound washout and subsequent H2O2 addition measured after 18 hrs by MTT assay; assay type: functional, cell-based
[12] = test system: HL-60; assay: Induction of apoptosis in human HL60 cells assessed as necrotic cells at 0.75 to 1.5 uM after 24 hrs by Annexin V-FITC/propidium iodide staining-based flow cytometry; assay type: functional
[13] = test system: HL-60; assay: Induction of apoptosis in human HL60 cells assessed as apoptotic cells at 0.75 to 1.5 uM after 24 hrs by Annexin V-FITC/propidium iodide staining-based flow cytometry; assay type: functional
[14] = test system: HL-60; assay: Induction of apoptosis in human HL60 cells assessed as nuclear shrinkage at 0.75 to 1.5 uM after 24 hrs by Hoechst 33342 staining-based laser scanning confocal microscopic analysis; assay type: functional, cell-based
[15] = test system: HL-60; assay: Induction of apoptosis in human HL60 cells assessed as chromatin condensation at 0.75 to 1.5 uM after 24 hrs by Hoechst 33342 staining-based laser scanning confocal microscopic analysis; assay type: functional, cell-based
[16] = test system: HL-60; assay: Induction of apoptosis in human HL60 cells assessed as apoptotic body formation at 0.75 to 1.5 uM after 24 hrs by Hoechst 33342 staining-based laser scanning confocal microscopic analysis; assay type: functional, cell-based
[17] = test system: HL-60; assay: Induction of apoptosis in human HL60 cells assessed as condensed nuclei at 0.75 to 1.5 uM after 24 hrs by Hoechst 33342 staining-based laser scanning confocal microscopic analysis; assay type: functional, cell-based
[18] = test system: HL-60; assay: Induction of apoptosis in human HL60 cells assessed as cell nuclear shrinkage at 0.75 to 1.5 uM after 24 hrs by Hoechst 33342 staining-based laser scanning confocal microscopic analysis; assay type: functional
[19] = test system: HL-60; assay: Induction of apoptosis in human HL60 cells assessed as incomplete cell membrane at 0.75 to 1.5 uM after 24 hrs by Hoechst 33342 staining-based laser scanning confocal microscopic analysis; assay type: functional
[20] = test system: HL-60; assay: Induction of apoptosis in human HL60 cells assessed as abnormal cellular morphology at 0.75 to 1.5 uM after 24 hrs by Hoechst 33342 staining-based laser scanning confocal microscopic analysis; assay type: functional, cell-based
[21] = test system: HL-60; assay: Reduction of mitochondrial membrane potential in human HL60 cells assessed as decrease in ATP levels at 0.75 to 1.5 uM after 24 hrs; assay type: functional, cell-based
[22] = test system: Liver; assay: Induction of mitochondrial dysfunction in Wistar rat liver assessed as swelling at 20 uM in presence of calcium related inhibitor ruthenium red; assay type: functional; details: mitochondria
[23] = test system: HL-60; assay: Induction of mitochondrial dysfunction in human HL60 cells assessed as increase in intracellular calcium level at 0.75 to 1.5 uM after 4 to 24 hrs by Fluo-3 AM dye-based flow cytometry; assay type: functional, cell-based
[24] = test system: HL-60; assay: Induction of mitochondrial dysfunction in human HL60 cells assessed as increase in cytochome c levels in cytosol at 1.5 uM after 24 hrs by ELISA relative to control; assay type: functional
[25] = test system: HL-60; assay: Induction of cell death in human HL60 cells at 1 to 1.5 uM after 24 hrs in presence of antioxidant vitamin E by trypan blue assay; assay type: functional, cell-based
[26] = test system: HL-60; assay: Induction of cell death in human HL60 cells at 1 to 1.5 uM after 24 hrs in presence of antioxidant resveratrol by trypan blue assay; assay type: functional, cell-based
[27] = test system: HL-60; assay: Induction of cell death in human HL60 cells at 1 to 1.5 uM after 24 hrs in presence of antioxidant DTT by trypan blue assay; assay type: functional, cell-based
[28] = species: Homo sapiens; assay: Effect on glutathione peroxidase catalytic activity in human HL60 cells; assay type: cell-based
[29] = test system: HL-60; assay: Induction of cell death in human HL60 cells at 0.4 uM after 24 hrs in presence of […] BSO by MTT assay; assay type: functional, cell-based
[30] = test system: HL-60; assay: Induction of cell death in human HL60 cells at 1 to 1.5 uM after 24 hrs in presence of antioxidant lipoic acid by trypan blue assay; assay type: functional, cell-based
[31] = test system: HL-60; assay: Induction of mitochondrial membrane potential loss in human HL60 cells at 1 uM after 24 hrs by JC-1 staining-based flow cytometry; assay type: functional, cell-based

Row | SMILES | Activity [1] | IC50 [1] [µM] | Activity [2] | IC50 [2] [µM] | Activity [3] | IC50 [3] [µM] | Activity [4] | IC50 [4] [µM] | IC50 [5] [µM] | Activity [5] | Activity [6] | Activity [7] [%] | Activity [8] | Activity [9] | Activity [10] | Activity [11] | Activity [12] | Activity [13] [%] | Activity [14] | Activity [15] | further results
1 | Oc1ccccc1/C=N/c1ccc([As]2SCCCS2)cc1 | Dose-dependent effect | 0.94 | Dose-dependent effect | 0.71 | Dose-dependent effect | 2.44 | Dose-dependent effect | 4.05 | 5.99 | Dose-dependent effect | Tde | 20 | inactive | Active | Active | Active | <=0.2% | 40 | Active | Active | Activity [16]: Active; Activity [17]: Active; Activity [18]: Active; Activity [19]: Active; Activity [20]: Active; Activity [21]: Active; Activity [22]: inactive; Activity [23]: Active; fold change (FC) [24]: 2; Activity [25]: Active; Activity [26]: Active; Activity [27]: inactive; Activity [28]: inactive; Activity [29]: Active; Activity [30]: inactive; Activity [31]: Active
2 | O=C(Nc1ccc([As]2SCCCS2)cc1)c1ccccc1O | Dose-dependent effect | 0.84 | Dose-dependent effect | 0.69 | Dose-dependent effect | 7.89 | Dose-dependent effect | 6.75 | 13.4 | Dose-dependent effect | Tde | 20 | inactive | Active | Active | Active | <=0.2% | 40 | Active | Active | Activity [16]: Active; Activity [17]: Active; Activity [18]: Active; Activity [19]: Active; Activity [20]: Active; Activity [21]: Active; Activity [22]: inactive; Activity [23]: Active; fold change (FC) [24]: 2; Activity [25]: Active; Activity [26]: Active; Activity [27]: inactive; Activity [28]: inactive; Activity [29]: Active; Activity [30]: inactive; Activity [31]: Active
